In data set [1] the test system is acyl-coenzyme A:cholesterol acetyltransferase enzyme (ACAT). The experiment in a line: Effect of the ester on ACAT activity in rat hepatic microsomes (14C-linoleic acid incorporation into cholesterol esters, TLC, beta counter). The class given is biochemical. Particulars: rat liver microsomes 200 micrograms, mean+/-standard error. How it is done:
For the experiments of effectiveness a test to evaluate the effect of the ester formed from linoleic acid obtained from example 1 and example 4 on acyl-coenzyme A:cholesterol acetyltransferase enzyme (ACAT) activity was performed. The experiment was performed in vitro according to a classic pharmacology method, used for the evaluation of the activity of this enzyme, reported in the method book: Drug discovery and evaluation, Pharmacological assay, Ed. H. G: Vogel (Springer), p. 1119, 2002.
Hepatic microsomes were prepared as well as in the example 1.
Eight tubes were prepared, in all tubes linoleic acid-^14C (10 microM) was incubated in presence of 200 micrograms of microsomes. Each tube contained phosphate buffer 0.04 M KH2PO4, pH 7.4 with 0.05 M KCl, 0.03 EDTA, 0.3 M sucrose, 1 mM α-cyclodextrin, final volume 750 microliters. The eight tubes have been incubated at 37° C. for 10 min.
The esters of example 1 and 4 were pooled together and three sample solutions of concentration 12.5, 25 and 50 micromolar respectively were prepared in duplicate, therefore obtaining six sample solutions.
The six sample solutions were then transferred respectively in six of eight tubes prepared as above at the end of the 10 minutes (each concentration of ester separately incubated per tube). The seventh tube was added with ^14C-linoleic acid alone (without esters) and the eighth with ethanol alone (carrier in which the esters were resuspended) to evaluate a possible effect of ethanol on the enzymatic activity. All the eight tubes have been incubated at 37° C. for four minutes.
At the end of the time the reaction was stopped by adding chloroform:methanol 2:1. The samples of the eight tubes were extracted according to the Folch's method (1957). The lower phase of each sample containing the lipid extracts was separated and dried, then taken-up again in 1 ml of chloroform:methanol 2:1. The extract of each sample was dried and subjected to TLC. […]
Spots were highlighted through iodine vapour. The bands which correspond to the standard for each TLC were taken off from the plate and counted in beta counter. […]
(In general: Liver microsomes are vesicles of endoplasmic reticulum, rich in cytochrome P450 enzymes.)

The conditions of data set [2]: literature, cited from earlier work.
The conditions of data set [3]: administered in form of triglyceride; literature; cited from earlier work.
Data set [4] deals with X-adrenoleukodystrophic fibroblasts. Particulars: patients suffering from adrenoleucodistrophy; literature; cited from earlier work.
The test system of the next data set is ACAT. Particulars: literature statement; cited from earlier work.

The source of these data is patent US20100317639A1 (priority 2005, published 2010).

In the case of “monoester of the androgen 5α-androstan-3α,17β-diol (3α-diol) and of the linoleic acid (LA) (cis,cis-9,12-octadecadienoic acid) (18:2, n-6) [Example 1]”, the entries for the “inhibition percentage with reference to the untreated sample” value in data set [1] (ester 12.5 microM), in data set [1] (ester 25 microM) and in data set [1] (ester 50 microM) were 2.5, 44% and 28%, respectively.
Take `CCCCCCCC/C=C\CCCCCCCCCCCC(=O)O` [erucic acid, erucic acid (C22:1)]: the effectiveness in vivo entry in data set [2] (administered in form of triglyceride) is “little effective”. For the same molecule, the “crossing of the hematoencephalic barrier” value in data set [2] (in vivo) is given as “failed to cross the hematoencephalic barrier”. For the same molecule, in data set [3], the effectiveness in vitro result was “only partially effective”.
For the molecule `C[C@]12CCC(=O)C[C@@H]1CC[C@@H]1[C@@H]2CC[C@]2(C)[C@@H](O)CC[C@@H]12` [dihydrotestosterone, 5α-androstan-17β-ol-3-one], in data set [4], the beta-oxidation entry is reported as “increase beta-oxidation” and the cholesterol esterification processes entry is “reduce cholesterol esterification processes”.
For the molecule `C[C@]12CC[C@@H](O)C[C@@H]1CC[C@@H]1[C@@H]2CC[C@]2(C)[C@@H](O)CC[C@@H]12` [5α-androstan-3α,17β-diol], in data set [4], the beta-oxidation entry was “increase beta-oxidation” and the cholesterol esterification processes result is recorded as “reduce cholesterol esterification processes”.
With `CCCCCCCN(Cc1ccc(CC(C)(C)C)cc1)C(=O)Nc1ccc(F)cc1F` [CL 277,082, N-(2,4-difluorophenyl)-N-(4-neopentylbenzyl)-N-(n-heptyl)urea], the “inhibiting the ACAT activity” value with ACAT was “very strong and specific”.
